Measurements from US5021411A, “Imidazodiazepine derivatives” (Hoffmann-La Roche Inc., priority 1988, dated 1991).

Molecular target: central benzodiazepine receptors (specific benzodiazepine receptors in the cerebral cortex)
Test: Inhibition of the specific binding of tritiated diazepam at the specific benzodiazepine receptors in the cerebral cortex (affinity to central benzodiazepine receptors)
Settings: read-out: Affinity to benzodiazepine receptors IC 50
Excerpt: The affinity of compounds of formula I to the central benzodiazepine receptors has been determined according to the method described in Life Science 20, 2101-2110 (1977) and Science 198, 849-851 (1977). According to this method, the inhibition of the binding of tritiated diazepam at the specific benzodiazepine receptors in the cerebral cortex by the respective test substances is ascertained. The IC50 ("50% inhibiting concentration") is that concentration of the respective test substance which brings about a 50 percent inhibition of the specific binding of the tritiated diazepam at the specific benzodiazepine receptors in the cerebral cortex.

CN1Cc2c(C#CCOCC3CC3)ncn2-c2cccc(Cl)c2C1=O [A, 7-Chloro-3-[3-(cyclopropylmethoxy)-1-propynyl]-4,5-dihydro-5-methyl-6H-imidazo[1,5-a][1,4]benzodiazepin-6-one]
IC50: 1.4 nM

CC(=O)OCC#Cc1ncn2c1CN(C)C(=O)c1c(Cl)cccc1-2 [B, 3-(7-chloro-5,6-dihydro-5-methyl-6-oxo-4H-imidazo[1,5-a][1,4]benzodiazepin-3-yl)-2-propynyl acetate]
IC50: 2.6 nM

C/C(C#Cc1ncn2c1CN(C)C(=O)c1c(Cl)cccc1-2)=C/CO [D, 7-chloro-4,5-dihydro-3-[(Z)-5-hydroxy-3-methyl-3-penten-1-ynyl]-5-methyl-6H-imidazo[1,5-a][1,4]-benzodiazepin-6-one]
IC50: 1.4 nM

CN1Cc2c(C#CC(C)(C)OCC3CC3)ncn2-c2cccc(Cl)c2C1=O [C, 7-chloro-3-[3-(cyclopropylmethoxy)-3-methyl-1-butynyl]-4,5-dihydro-5-methyl-6H-imidazo[1,5-a][1,4]benzodiazepin-6-one]
IC50: 5 nM

C=CC(C)(O)C#Cc1ncn2c1CN(C)C(=O)c1c(Cl)cccc1-2 (stereo not drawn) [E, 7-chloro-4,5-dihydro-3-(3-hydroxy-3-methyl-4-penten-1-ynyl)-5-methyl-6H-imidazo[1,5-a][1,4]benzodiazepin-6-one]
IC50: 3.7 nM

C/C(C#Cc1ncn2c1CN(C)C(=O)c1c(Cl)cccc1-2)=C\CO [F, 7-chloro-4,5-dihydro-3-[(E)-5-hydroxy-3-methyl-3-penten-1-ynyl]-5-methyl-6H-imidazo[1,5-a][1,4]-benzodiazepin-6-one]
IC50: 2.2 nM
